Reference: BindingDB's records for doi:10.3109/14756366.2013.813942 (Istituto di Biostrutture e Bioimmagini-CNR, 2014)
Where a name gives a salt, the structure may show the parent alone.

Target: T1, Carbonic anhydrase [110-330] (Coastal plain yellowtops, UniProt P46510)
T1 construct: 110-330
T1 sequence (P46510 whole entry): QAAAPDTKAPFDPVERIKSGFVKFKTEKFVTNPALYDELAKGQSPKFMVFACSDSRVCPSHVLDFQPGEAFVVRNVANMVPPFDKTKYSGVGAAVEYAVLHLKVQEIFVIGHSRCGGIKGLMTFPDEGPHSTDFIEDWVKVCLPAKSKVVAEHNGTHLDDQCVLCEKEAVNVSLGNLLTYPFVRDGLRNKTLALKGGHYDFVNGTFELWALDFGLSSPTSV
Assay: Stopped Flow CO2 Hydration Assay
Settings: pH 8.3; 20 °C
Method: Inhibition constants of carboxylate inhibitors against F. bidentis CA I were determined by a stopped flow CO2 hydration assay at 20 °C.

SMILES | Ki [µM]
CCCCC(=O)O | 77.5
O=CO | 97.5
CC(=O)O [sodium acetate] | 95.1
O=C(O)c1ccccc1 [SODIUM BENZOATE] | 64.5
CCCC(=O)O | 82.3
O=C(O)CC(O)(CC(=O)O)C(=O)O [SODIUM CITRATE] | 41.4

Continued, values first:

Ki [µM] | SMILES
93 | O=C(O)C(=O)O
100 | O=C(O)CC(=O)O [sodium malonate]
74.1 | CC(O)C(=O)O (centres undefined)
92.5 | O=C(O)CC(O)C(=O)O (centres undefined)
73.2 | O=C(O)/C=C\C(=O)O [sodium maleate]
91 | CCC(=O)O
> 10000 | CC(=O)C(=O)O [Pyruvate]
51.2 | O=C(O)c1c(F)c(F)cc(F)c1F [2,3,5,6-F4-Benzoate]
